# Results published in the supplement of paper PMC11061612.
# Experiments:
# [1] = tested on: CAL-120 (Breast Carcinoma); assay: combination Emax (second highest fraction inhibited in the dose matrix, 72 h); higher = more inhibition; extreme values may be limits of the assay
# Method in brief: (§1)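 Cell lines grown in DMEM/F12 or RPMI with 10% FBS were plated in 1536-well plates and held 24 hours at 37°C, 5% CO2 before 72 hours of exposure to two-drug dose matrices, with DMSO typically at 0.2%. CellTiter-Glo 2.0 luminescence gave viability, which was converted to inhibition. Vehicle wells were set to 0 and blank wells to 1. Combination Emax is the second-highest inhibition in the matrix, and Bliss excess is the observed combination effect minus the expected EA + EB − EA·EB, where EA and EB are the single-agent effects.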
# [2] = tested on: VAL (B-Cell Non-Hodgkin's Lymphoma); assay: as above
# Method in brief: as §1
# [3] = tested on: NCI-H2342 (Lung Adenocarcinoma); assay: as above
# Method in brief: as §1
# [4] = tested on: COLO-680N (Esophageal Squamous Cell Carcinoma); assay: as above
# Method in brief: as §1
# [5] = tested on: MFE-280 (Endometrial Carcinoma); assay: as above
# Method in brief: as §1
# [6] = tested on: PC-3_[JPC-3] (Lung Adenocarcinoma); assay: as above
# Method in brief: as §1
# [7] = tested on: KE-37 (T-Lymphoblastic Leukemia); assay: as above
# Method in brief: as §1
# [8] = tested on: RCM-1 (Colorectal Carcinoma); assay: as above
# Method in brief: as §1
# [9] = tested on: MKN45 (Gastric Carcinoma); assay: as above
# Method in brief: as §1
# [10] = tested on: OVMIU (Ovarian Carcinoma); assay: as above
# Method in brief: as §1
# WM793B (Melanoma) = assay: as above
# Method in brief: as §1
# [11] = tested on: PANC-03-27 (Pancreatic Carcinoma); assay: as above
# Method in brief: as §1
# SF268 (Low Grade Glioma) = assay: as above
# Method in brief: as §1
# [12] = tested on: NCI-H446 (Small Cell Lung Carcinoma); assay: as above
# Method in brief: as §1
# [13] = tested on: RERF-GC-1B (Gastric Carcinoma); assay: as above
# Method in brief: as §1
# [14] = tested on: CAL-62 (Thyroid Gland Carcinoma); assay: as above
# Method in brief: as §1
# A2058 (Melanoma) = assay: as above
# Method in brief: as §1
# [15] = tested on: RKN (Other Solid Carcinomas); assay: Bliss excess, mean over the matrix (fraction); higher = more synergy
# Method in brief: as §1
# SF539 (Glioblastoma) = assay: as above
# Method in brief: as §1
# GB-1 (Glioblastoma) = assay: as above
# Method in brief: as §1
# 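Wherever Bliss excess, mean over the matrix is given: after 72 h of two-drug dosing.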
Structure (SMILES),combination Emax [1],combination Emax [2],combination Emax [3],combination Emax [4],combination Emax [5],combination Emax [6],combination Emax [7],combination Emax [8],combination Emax [9],combination Emax [10],combination Emax (WM793B (Melanoma)),combination Emax [11],combination Emax (SF268 (Low Grade Glioma)),combination Emax [12],combination Emax [13],combination Emax [14],combination Emax (A2058 (Melanoma)),Bliss excess [15],Bliss excess (SF539 (Glioblastoma)),Bliss excess (GB-1 (Glioblastoma))
"Cc1c2c(nn1C)CSCc1cc(n(C)n1)CSc1cc(c3ccccc3c1)OCCCc1c(C(=O)O)n(C)c3c-2c(Cl)ccc13 [AZD5991] + C[C@@H](Nc1cc(F)cc(F)c1)c1cc(C(=O)N(C)C)cc2c(=O)cc(N3CCOCC3)oc12 [AZD8186] (first compound max 1 µM, 7x7, partner max 3 µM)",0.218,0.744,0.294,0.215,0.465,0.348,0.919,0.285,0.39,0.447,0.419,0.354,0.3,0.882,0.98,0.206,0.821,-0.0269,-0.0052,-0.0152
"C[C@@H](c1ccc2nccn2c1)n1nnc2ncc(-c3cnn(C)c3)nc21 [Savolitinib] + CC1(C)CCC(CN2CCN(c3ccc(C(=O)NS(=O)(=O)c4ccc(NCC5CCOCC5)c([N+](=O)[O-])c4)c(Oc4cnc5[nH]ccc5c4)c3)CC2)=C(c2ccc(Cl)cc2)C1 [Venetoclax] (first compound max 1 µM, 7x7, partner max 1 µM)",0.0877,0.963,0.188,0.211,0.186,0.129,0.113,0.121,0.831,0.284,0.137,0.167,0.104,0.277,0.128,0.142,0.107,-0.0529,-0.0697,-0.0626
"COc1nnc2ccc(N3CCC(c4ccc(OCCN5CCN(C)C(=O)[C@H]5C)cc4)CC3)nn12 [AZD5153] + Cc1c2c(nn1C)CSCc1cc(n(C)n1)CSc1cc(c3ccccc3c1)OCCCc1c(C(=O)O)n(C)c3c-2c(Cl)ccc13 [AZD5991] (first compound max 1 µM, 7x7, partner max 1 µM)",0.403,0.854,0.563,0.37,0.45,0.39,0.997,0.619,0.497,0.813,0.688,0.252,0.569,0.998,0.985,0.795,0.975,-0.0692,-0.0273,-0.0513
"NC1(C(=O)N[C@@H](CCO)c2ccc(Cl)cc2)CCN(c2ncnc3[nH]ccc23)CC1 [Capivasertib] + COc1nnc2ccc(N3CCC(c4ccc(OCCN5CCN(C)C(=O)[C@H]5C)cc4)CC3)nn12 [AZD5153] (first compound max 10 µM, 7x7, partner max 1 µM)",0.647,0.806,0.46,0.276,0.608,0.349,0.905,0.613,0.58,0.665,0.616,0.307,0.488,0.97,0.617,0.751,0.882,-0.0451,0.0157,0.0557
"CC1(C)CCC(CN2CCN(c3ccc(C(=O)NS(=O)(=O)c4ccc(NCC5CCOCC5)c([N+](=O)[O-])c4)c(Oc4cnc5[nH]ccc5c4)c3)CC2)=C(c2ccc(Cl)cc2)C1 [Venetoclax] + COc1cc(Nc2ncc3c(n2)-c2ccc(Cl)cc2C(c2c(F)cccc2OC)=NC3)ccc1C(=O)O [Alisertib] (first compound max 1 µM, 7x7, partner max 10 µM)",0.384,1,0.214,0.318,0.734,0.686,0.955,0.372,0.563,0.522,0.383,0.56,0.419,0.909,0.688,0.51,0.612,-0.0516,0.0396,-0.03
"COc1nnc2ccc(N3CCC(c4ccc(OCCN5CCN(C)C(=O)[C@H]5C)cc4)CC3)nn12 [AZD5153] + C=CCn1c(=O)c2cnc(Nc3ccc(N4CCN(C)CC4)cc3)nc2n1-c1cccc(C(C)(C)O)n1 [AZD1775] (first compound max 1 µM, partner max 1 µM)",0.489,0.792,0.711,0.353,0.383,0.58,0.978,0.667,0.696,0.86,0.636,0.604,0.637,0.962,0.77,0.79,0.8,-0.0898,-0.0303,0.056
"CCN(CCO)CCCOc1ccc2c(Nc3cc(CC(=O)Nc4cccc(F)c4)[nH]n3)ncnc2c1 [AZD2811] + O=C(c1cc(Cc2n[nH]c(=O)c3ccccc23)ccc1F)N1CCN(C(=O)C2CC2)CC1 [Olaparib] (first compound max 1 µM, 7x7, partner max 10 µM)",0.293,0.831,0.166,0.196,0.339,0.205,0.998,0.247,0.28,0.295,0.359,0.379,0.178,0.81,0.316,0.277,0.218,0.0029,0.0434,-0.0218
"CC(=O)c1c(C)c2cnc(Nc3ccc(N4CCNCC4)cn3)nc2n(C2CCCC2)c1=O [Palbociclib] + Cn1cnc2c(F)c(Nc3ccc(Br)cc3Cl)c(C(=O)NOCCO)cc21 [Selumetinib] (first compound max 10 µM, 7x7, partner max 10 µM)",0.186,0.599,0.107,0.193,0.199,0.29,0.71,0.63,0.694,0.427,0.585,0.414,0.218,0.567,0.333,0.457,0.47,-0.0279,-0.0345,-0.0016
"Cc1cc2ncnn2cc1Nc1ncc2c(n1)n(C1CCOCC1)c(=O)n2C [AZD7648] + CCN(CCO)CCCOc1ccc2c(Nc3cc(CC(=O)Nc4cccc(F)c4)[nH]n3)ncnc2c1 [AZD2811] (first compound max 10 µM, 7x7, partner max 1 µM)",0.334,0.798,0.324,0.236,0.377,0.319,1,0.316,0.446,0.444,0.411,0.334,0.19,0.834,0.281,0.368,0.247,-0.0148,0.0118,-0.0124
"Cn1cnc2c(F)c(Nc3ccc(Br)cc3Cl)c(C(=O)NOCCO)cc21 [Selumetinib] + C[C@@H]1COCCN1C2=NC(=NC(=C2)C3(CC3)[S@](=N)(=O)C)C4=C5C=CNC5=NC=C4 [AZD6738] (first compound max 10 µM, 7x7, partner max 10 µM)",0.436,0.746,0.483,0.203,0.151,0.309,0.959,0.656,0.782,0.476,0.703,0.599,0.49,0.85,0.522,0.672,0.83,0.0584,0.0586,-0.0347
"COc1nnc2ccc(N3CCC(c4ccc(OCCN5CCN(C)C(=O)[C@H]5C)cc4)CC3)nn12 [AZD5153] + CC1(C)CCC(CN2CCN(c3ccc(C(=O)NS(=O)(=O)c4ccc(NCC5CCOCC5)c([N+](=O)[O-])c4)c(Oc4cnc5[nH]ccc5c4)c3)CC2)=C(c2ccc(Cl)cc2)C1 [Venetoclax] (first compound max 1 µM, 7x7, partner max 1 µM)",0.336,0.996,0.315,0.344,0.38,0.364,0.7,0.557,0.566,0.666,0.523,0.255,0.462,0.858,0.702,0.753,0.432,-0.0369,-0.0797,-0.062
"NC1(C(=O)N[C@@H](CCO)c2ccc(Cl)cc2)CCN(c2ncnc3[nH]ccc23)CC1 [Capivasertib] + Cn1cnc2c(F)c(Nc3ccc(Br)cc3Cl)c(C(=O)NOCCO)cc21 [Selumetinib] (first compound max 10 µM, 7x7, partner max 10 µM)",0.444,0.607,0.381,0.392,0.68,0.382,0.707,0.668,0.705,0.585,0.768,0.517,0.315,0.657,0.6,0.557,0.895,0.0373,-0.0225,0.0042
